Laboratory results reported in patent US7659404B2, “Broad spectrum 2-(substituted-amino)-benzothiazole sulfonamide HIV protease inhibitors” (Tibotec Pharmaceuticals Ltd., priority 2001, dated 2010).

What was measured:
[1] = tested on: clinically isolated HIV strain T; format: cell-based; conditions: FR=EC50(mutant strain)/EC50(HIV-1 strain LAI)
Procedure: (§1) HIV- or mock-infected MT4 cells were incubated for five days in the presence of various concentrations of the inhibitor. […] Cell viability is measured by measuring the concentration of MTT, a yellow, water soluble tetrazolium dye that is converted to a purple, water insoluble formazan in the mitochondria of living cells only. Upon solubilization of the resulting formazan crystals with isopropanol, the absorbance of the solution is monitored at 540 nm. The values correlate directly to the number of living cells remaining in the culture at the completion of the five day incubation. The inhibitory activity of the compound was monitored on the virus-infected cells and was expressed as EC50 and EC90. These values represent the amount of the compound required to protect 50% and 90%, respectively, of the cells from the cytopathogenic effect of the virus. The toxicity of the compound was measured on the mock-infected cells and was expressed as CC50, which represents the concentration of compound required to inhibit the growth of the cells by 50%. The selectivity index (SI) (ratio CC50/EC50) is an indication of the selectivity of the anti-HIV activity of the inhibitor.
(§2) Because of the increasing emergence of drug resistant HIV strains, the present compounds were tested for their potency against clinically isolated HIV strains harboring several mutations.
(§3) As a measure of the broad spectrum activity of the present compounds, the fold resistance (FR) defined as FR=EC50(mutant strain)/EC50(HIV-1 strain LAI).

[2] = tested on: clinically isolated HIV strain H; format: cell-based; conditions: FR=EC50(mutant strain)/EC50(HIV-1 strain LAI)
Procedure: as §1, §2, §3

[3] = tested on: clinically isolated HIV strain I; format: cell-based; conditions: FR=EC50(mutant strain)/EC50(HIV-1 strain LAI)
Procedure: as §1, §2, §3

[4] = tested on: clinically isolated HIV strain J; format: cell-based; conditions: FR=EC50(mutant strain)/EC50(HIV-1 strain LAI)
Procedure: as §1, §2, §3

[5] = tested on: clinically isolated HIV strain O; format: cell-based; conditions: FR=EC50(mutant strain)/EC50(HIV-1 strain LAI)
Procedure: as §1, §2, §3

[6] = tested on: virus strain F (R13025); assay: microbe, parasite or virus in culture; format: cell-based, HIV; conditions: FR=EC50(mutant strain)/EC50(HIV-1 strain LAI); strain F
Outline: (§4)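 Activity against mutation-bearing clinical isolates is given as fold resistance, the ratio of mutant to HIV-1 LAI EC50. EC50 and EC90 reflect 50% and 90% protection of infected MT4 cells over a five-day culture. Cell survival was quantified by MTT formazan absorbance at 540 nm.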

[7] = tested on: virus strain S (R13080); assay: microbe, parasite or virus in culture; format: cell-based, HIV; conditions: FR=EC50(mutant strain)/EC50(HIV-1 strain LAI); strain S
Outline: as §4

SMILES | fold resistance (FR), strain T [1] | fold resistance (FR), strain H [2] | fold resistance (FR), strain I [3] | fold resistance (FR), strain J [4] | fold resistance (FR), strain O [5] | fold resistance (FR), strain F [6] | fold resistance (FR), strain S [7]
CC(C)CN(C[C@@H](O)[C@H](Cc1ccccc1)NC(=O)O[C@H]1CO[C@H]2OCC[C@H]21)S(=O)(=O)c1ccc2nc(NCCCN(C)C)sc2c1 [Compound 22] | 6.0 | 0.4 | 0.6 | 0.4 | 0.4 | 0.3 | 1.4
CNCCNc1nc2ccc(S(=O)(=O)N(CC(C)C)C[C@@H](O)[C@H](Cc3ccccc3)NC(=O)O[C@H]3CO[C@H]4OCC[C@H]43)cc2s1 [Compound 23] | 1.2 | 1.2 | 1.0 | 1.0 | 0.9 | 1.1 | 1.1
CC(C)CN(C[C@@H](O)[C@H](Cc1ccccc1)NC(=O)O[C@H]1CO[C@H]2OCC[C@H]21)S(=O)(=O)c1ccc2nc(N3CCN(C)C(=O)C3)sc2c1 [Compound 24] | 174.9 | 4.7 | 1.1 | 4.5 | 1.6 | 16.6 | 24.1
CC(C)CN(C[C@@H](O)[C@H](Cc1ccccc1)NC(=O)O[C@H]1CO[C@H]2OCC[C@H]21)S(=O)(=O)c1ccc2nc(N3CCN(C)C3=O)sc2c1 [Compound 25] | 619.8 | 4.7 | 3.5 | 6.0 | 5.6 | 26.0 | 42.5
CC(C)CN(C[C@@H](O)[C@H](Cc1ccccc1)NC(=O)O[C@H]1CO[C@H]2OCC[C@H]21)S(=O)(=O)c1ccc2nc(N3CCN(C)CC3=O)sc2c1 [Compound 26] | 345.6 | 20.3 | 6.6 | 9.2 | 10.6 | 29.6 | 34.1
CCOC(=O)N(CCN(C)C)c1nc2ccc(S(=O)(=O)N(CC(C)C)C[C@@H](O)[C@H](Cc3ccccc3)NC(=O)O[C@H]3CO[C@H]4OCC[C@H]43)cc2s1 [Compound 28] | 12.7 | 1.8 | 1.4 | 0.7 | 0.8 | 2.3 | 4.4
CC(C)CN(CC(O)C(Cc1ccccc1)NC(=O)OC1CNC(=O)C1)S(=O)(=O)c1ccc2nc(NC(=O)CN(C)C)sc2c1 (centres unmarked) [Compound 36] | 0.2 | 0.6 | 0.5 | 0.2 | 0.2 | 0.2 | 0.2
CC(C)CN(C[C@@H](O)[C@H](Cc1ccccc1)NC(=O)OCc1cccnc1)S(=O)(=O)c1ccc2nc(NCCN(C)C)sc2c1 [Compound 38] | 230.4 | 2.0 | 1.1 | 3.9 | 1.2 | 12.4 | 11.9
Cc1c(N)cccc1C(=O)N[C@@H](Cc1ccccc1)[C@H](O)CN(CC(C)C)S(=O)(=O)c1ccc2nc(NCCN(C)C)sc2c1 [Compound 39] | 249.9 | 2.3 | 2.4 | 2.2 | 1.7 | 19.7 | 16.5
Cc1cccc(C)c1OCC(=O)N[C@@H](Cc1ccccc1)[C@H](O)CN(CC(C)C)S(=O)(=O)c1ccc2nc(NCCN(C)C)sc2c1 [Compound 40] | 87.8 | 2.1 | 6.4 | 2.7 | 3.2 | 7.2 | 12.8
CC(C)CN(C[C@@H](O)[C@H](Cc1ccccc1)NC(=O)OCc1cccnc1)S(=O)(=O)c1ccc2nc(NCCN3CCCC3)sc2c1 [Compound 41] | 252.5 | 2.3 | 2.5 | 5.6 | 2.0 | 44.4 | 37.6
Cc1c(N)cccc1C(=O)N[C@@H](Cc1ccccc1)[C@H](O)CN(CC(C)C)S(=O)(=O)c1ccc2nc(NCCN3CCCC3)sc2c1 [Compound 45] | 103.0 | 1.2 | 4.0 | 1.1 | 1.3 | 17.3 | 19.9
Cc1cccc(C)c1OCC(=O)N[C@@H](Cc1ccccc1)[C@H](O)CN(CC(C)C)S(=O)(=O)c1ccc2nc(NCCN3CCCC3)sc2c1 [Compound 46] | 44.4 | 1.3 | 3.3 | 2.8 | 3.2 | 4.7 | 7.1
CC(C)CN(C[C@@H](O)[C@H](Cc1ccccc1)NC(=O)OCc1cncs1)S(=O)(=O)c1ccc2nc(NCCN(C)C)sc2c1 [Compound 48] | 175.0 | 2.5 | 2.5 | 6.5 | 4.3 | 9.4 | 13.8
CC(C)CN(C[C@@H](O)[C@H](Cc1ccccc1)NC(=O)OCc1cncs1)S(=O)(=O)c1ccc2nc(NCCN3CCCC3)sc2c1 [Compound 49] | 114.0 | 3.6 | 2.9 | 5.5 | 3.9 | 12.8 | 17.8
CC(C)CN(C[C@@H](O)[C@H](Cc1ccccc1)NC(=O)OCc1cncs1)S(=O)(=O)c1ccc2nc(NCCN3CCCC3)sc2c1.O=C(O)C(F)(F)F [Compound 50] | 165.5 | 1.4 | 1.7 | 7.0 | 3.5 | 8.6 | 27.9
CC(C)CN(C[C@@H](O)[C@H](Cc1ccccc1)NC(=O)OCc1cncs1)S(=O)(=O)c1ccc2nc(NCCCN(C)C)sc2c1 [Compound 51] | 51.8 | 1.8 | 2.6 | 0.9 | 0.6 | 2.9 | 2.1
CC(C)CN(C[C@@H](O)[C@H](Cc1ccccc1)NC(=O)OCc1cccnc1)S(=O)(=O)c1ccc2nc(NCCCN(C)C)sc2c1 [Compound 52] | 124.5 | 1.8 | 1.3 | 2.7 | 1.6 | 10.2 | 20.3
Cc1cccc(C)c1OCC(=O)N[C@@H](Cc1ccccc1)[C@H](O)CN(CC(C)C)S(=O)(=O)c1ccc2nc(NCCCN(C)C)sc2c1 [Compound 53] | 49.8 | 0.6 | 1.3 | 1.4 | 1.6 | 2.1 | 3.8
Cc1c(N)cccc1C(=O)N[C@@H](Cc1ccccc1)[C@H](O)CN(CC(C)C)S(=O)(=O)c1ccc2nc(NCCCN(C)C)sc2c1 [Compound 54] | 1.4 | 0.6 | 0.9 | 0.4 | 0.4 | 3.6 | 1.8
